Results as given in the NIST ThermoML archive (doi:10.1021/je020140j).

What was measured:
[1] = 101 kPa, Liquid
[2] = molar heat capacity at constant pressure; details: 101 kPa, Liquid, Small sample (50 mg) DSC
[3] = molar heat capacity at constant pressure; xn = mol fraction of the nth substance listed; details: 101 kPa, Liquid, Small sample (50 mg) DSC, x2 = 0
[4] = xn = mol fraction of the nth substance listed; details: 101 kPa, Liquid, x2 = 0

OCCO [1,2-ethanediol]
Details	mass density, [1] [kg/m3]	molar heat capacity at constant pressure, [2] [J/K/mol]	viscosity, [1] [mPa·s]
293.15 K	1113.7	147.47	20.83
303.15 K	–	149.71	13.65
313.15 K	1093.6	152	9.443
323.15 K	1084.7	153.8	6.992
333.15 K	1076.4	156.22	5.06
343.15 K	1067.5	159.7	3.987
353.15 K	1060	161	3.021
363.15 K	–	164.98	–
373.15 K	–	168.45	–

O [water] + OCCO
Details	mass density, [4] [kg/m3]	molar heat capacity at constant pressure, [3] [J/K/mol]	viscosity, [4] [mPa·s]
293.15 K	–	75.29	1.002
303.15 K	–	75.38	0.797
313.15 K	–	75.21	0.653
323.15 K	–	75.23	0.547
333.15 K	983.2	75.21	0.467
343.15 K	977.8	75.32	0.405
353.15 K	971.8	75.48	0.356
